The results in this text go back to patent publication US7138241B2, “Hybridoma, an antibody resistant to an interfering substance, and a kit for immunological analysis” (Japan Envirochemicals, Ltd., priority 2001, dated 2006).

The subject of the assay is EE2-227 antibody. Nature of the assay: Cross-reactivity test with the EE2-ELISA kit. The assay is classed as binding, mouse. To be noted: from IC50 (50% degree of inhibition) of each estrogen's standard curve relative to EE2. The method, then:
100 μL/well of a quantification sample or the “EE2 standard solution” (both are 10% methanol solutions) and 100 μL/well of the “antigen-enzyme conjugate solution” were mixed on a “mixing microplate”.
The “mixed solution” prepared in (3) was pipetted into the “anti-EE2 monoclonal antibody-immobilized plate” in a volume of 100 μl/well and reacted at room temperature for 60 minutes.
The “coloration reagent” prepared in (7) was added in the volume of 100 μL/well, the mixture was reacted at room temperature for 30 minutes, and the “coloration-stop solution” was added in a volume of 100 μL/well to stop the reaction.
The absorbance was measured at a wavelength of 450 nm with a plate reader, and the concentration of EE2 in the sample was determined from a standard curve.
The EE2 concentration was plotted on the ordinate [sic], and the ratio of the absorbance at each EE2 concentration to the absorbance at the concentration of 0 μg/L EE2 (degree of inhibition, B/BO %) was plotted on the abscissa [sic].
For the estrogens shown in [Table 2], the respective standard curves were prepared in the same manner as in Example 4, and the EE2 concentration (IC50) at which the degree of inhibition was 50% was determined and the cross-reactivity was determined from the following equation, and the results are shown in [Table 2]. Cross-reactivity (%)=[…]
A general note: In an ELISA, binding on a coated surface is turned into a signal by an enzyme label.
Take `C[C@]12CC[C@@H]3c4ccc(O)cc4CC[C@H]3[C@@H]1CC[C@@H]2O` [17β-Estradiol (E2), 17β-Estradiol]: the “Cross-reactivity (%) of EE2-227 antibody” value was below 0.2%.
For `C[C@]12CC[C@@H]3c4ccc(O)cc4CC[C@H]3[C@@H]1C[C@@H](O)[C@@H]2O` [Estriol (E3), Estriol] the value was below 0.2%; for `C[C@]12CC[C@@H]3c4ccc(O)cc4CC[C@H]3[C@@H]1C[C@@H](O[C@@H]1O[C@H](C(=O)O)[C@@H](O)[C@H](O)[C@H]1O)[C@@H]2O` [E3-16-glucuronide], below 0.2%; for `C[C@]12CC[C@@H]3c4ccc(OS(=O)(=O)O)cc4CC[C@H]3[C@@H]1CC[C@@H]2O[C@@H]1O[C@H](C(=O)O)[C@@H](O)[C@H](O)[C@H]1O` [E2-3-sulfate-17-glucuronide], below 0.2%.
Consider `C#C[C@]1(O)CC[C@H]2[C@@H]3CCc4cc(O)ccc4[C@H]3CC[C@@]21C` [Ethynylestradiol (EE2), Ethynylestradiol], for which the “Cross-reactivity (%) of EE2-227 antibody” value is listed as 100.0%.
For `C[C@]12CC[C@@H]3c4ccc(O)cc4CC[C@H]3[C@@H]1CC[C@@H]2O[C@@H]1O[C@H](C(=O)O)[C@@H](O)[C@H](O)[C@H]1O` [E2-17-glucuronide] the value was below 0.2%; for `C[C@]12CC[C@@H]3c4ccc(O)cc4CC[C@H]3[C@@H]1C[C@H](O)[C@@H]2O` [16-Epi-E3], below 0.2%.
For `C[C@]12CC[C@@H]3c4ccc(O[C@@H]5O[C@H](C(=O)O)[C@@H](O)[C@H](O)[C@H]5O)cc4CC[C@H]3[C@@H]1CC[C@@H]2O` [E2-3-glucuronide] the value was below 0.2%; for `COc1cc2c(cc1O)CC[C@@H]1[C@@H]2CC[C@]2(C)C(=O)CC[C@@H]12` [2-Methoxy E1], below 0.2%.
